This assay addresses T1, VLA-4 (Homo sapiens, UniProt P05556+P13612).
T1 construct: host or cells: Jurkat clone E6-1
Nature of the assay: Adhesion of Jurkat cells to immobilized VCAM-1 (domains 1-3). It counts as cell-based. The note with it: adhesion of CFSE-labeled Jurkat cells to recombinant human VCAM-1 (domains 1-3) coated plates, compounds as yielded by solid phase synthesis, purity about 40-90%. Details: scale not given here. The procedure: In Vitro Assay: Adhesion of Jurkat Cells to Immobilized VCAM-1 (Domains 1-3).
Preparation of Fluorescence Labeled Jurkat Cells:
Jurkat cells (American Type Culture Collection, Clone E6-1, ATCC TIB-152) were cultured in RPMI 1640 medium (Nikken Bio Medical Laboratory, CM1101) supplemented with 10% fetal bovine serum (Hyclone, A-1119-L), 100 U/ml penicilin (Gibco BRL, 15140-122) and 100 μg/ml streptomycin (Gibco BRL, 15140-122) in a humidified incubator at 37° C. with 5% CO2.
Jurkat cells were incubated with phosphate balanced solution (PBS, Nissui, 05913) containing 25 μM of 5(-and-6)-carboxyfluorescein diacetate, succinimidyle ester (CFSE, Dojindo Laboratories, 345-06441) for 20 min at room temperature while gently swirling every 5 min. After centrifugation at 1000 rpm for 5 min, the cell pellet was resuspended with adhesion assay buffer at a cell density of 2×10^6 cells/ml. The adhesion assay buffer was composed of 24 mM Tris-HCl (pH 7.4), 137 mM NaCl, 27 mM KCl, 4 mM glucose, 0.1% bovine serum albumin (BSA, Sigma, A9647) and 2 mM MnCl2.
Preparation of VCAM-1 (Extracellular Domains 1-3):
Complementary DNA (cDNA) encoding 7-domain form of VCAM-1 (GenBank accession #M60335) was obtained using Rapid-Screen™ cDNA library panels (OriGene Technologies, Inc) at Takara Gene Analysis Center (Shiga, Japan). The primers used were 5′-CCAAGGCAGAGTACGCAAAC-3′ (sence) and 5′-TGGCAGGTATTATTAAGGAG-3′ (antisense). PCR amplification of the 3-domain VCAM-1 cDNA was perform using Pfu DNA polymerase (Stratagene) with the following sets of primers: (U-VCAMd1-3) 5′-CCATATGGTACCTGATCAATTTAAAATCGAGACCACCCCAGAA-3′; (L-VCAMd1-3) 5′-CCATATAGCAATCCTAGGTCCAGGGGAGATCTCAACAGTAAA-3′. PCR cycle was 94° C. for 45 sec, 55° C. for 45 sec, 72° C. for 2 min, repeating 15 cycles. After the purification of the PCR product, the fragment was digested with KpnI-AvrII. The digested fragment was ligated into pBluescript IISK(−) (Strategene), which was linealized by digesting with KpnI-XhoI. The ligation was followed by transformation to a Dam/Dcm methylase-free E. coli strain SCS110 (Strategene) to create the donor plasmid pH7. To direct VCAM-1 molecule into the insect cell secretory pathway, the VCAM-1 coding sequence was fused to signal peptide sequence of honeybee melittin. The resulting melittin-VCAM fusion was placed in correct orientation to the baculoviris polyhedrin promoter. Baculovirus transfer vector containing first 3-domain form VCAM-1 (pH10) was constructed by ligation of 0.9 kb fragment from AvrII/Klenow/BclI digests of pH7 into SalI/Klenow/BamHI digests of pMelBacB (Invitrogen). Recombinant baculovirus was generated by using Bac-N-Blue™ Transfection kit (Invitrogen) according to the manufacture's instruction. The recombinant virus was amplified by infection to High-Five™ insect cells for 5-6 days, and virus titer was determined by plaque assay.
High-Five™ insect cells were pelleted in a 225 ml conical tube by centrifugation at 1000 rpm for 5 min After discarding the supernatant, the pellet was resuspended in 1.5×10^9 pfu (MOI=5) of high-titer virus solution, followed by incubation for 1.5 hours at room temperature. The cells were pelleted again and washed once in fresh Express Five™ serum free medium. The cells were pelleted again and finally, resuspended in 200 ml of fresh Express Five™ medium, transferred to a 1,000 ml shaker flask, and incubated in a shaker at 27° C., 130 rpm, for 48 hours before the culture supernatant was collected. The purification of 3-domain form of VCAM-1 from the culture supernatant was performed by one-step anion exchange chromatography. Protein concentration was determined by using Coomassie protein assay reagent (Pierce) according to the manufacture's instruction.
Preparation of Microtiter Plates:
Recombinant human VCAM-1 (extracellular domains 1-3) was dissolved at 0.5 μg/ml in PBS. […]

Read-outs that look alike come from different tables or passages of the source.

The source of these data is patent US6794386B2, “β-amino acid compounds as integrin antagonists” (Bayer Aktiengesellschaft, priority 2000, dated 2004).

T1 sequence (P13612 34-1032): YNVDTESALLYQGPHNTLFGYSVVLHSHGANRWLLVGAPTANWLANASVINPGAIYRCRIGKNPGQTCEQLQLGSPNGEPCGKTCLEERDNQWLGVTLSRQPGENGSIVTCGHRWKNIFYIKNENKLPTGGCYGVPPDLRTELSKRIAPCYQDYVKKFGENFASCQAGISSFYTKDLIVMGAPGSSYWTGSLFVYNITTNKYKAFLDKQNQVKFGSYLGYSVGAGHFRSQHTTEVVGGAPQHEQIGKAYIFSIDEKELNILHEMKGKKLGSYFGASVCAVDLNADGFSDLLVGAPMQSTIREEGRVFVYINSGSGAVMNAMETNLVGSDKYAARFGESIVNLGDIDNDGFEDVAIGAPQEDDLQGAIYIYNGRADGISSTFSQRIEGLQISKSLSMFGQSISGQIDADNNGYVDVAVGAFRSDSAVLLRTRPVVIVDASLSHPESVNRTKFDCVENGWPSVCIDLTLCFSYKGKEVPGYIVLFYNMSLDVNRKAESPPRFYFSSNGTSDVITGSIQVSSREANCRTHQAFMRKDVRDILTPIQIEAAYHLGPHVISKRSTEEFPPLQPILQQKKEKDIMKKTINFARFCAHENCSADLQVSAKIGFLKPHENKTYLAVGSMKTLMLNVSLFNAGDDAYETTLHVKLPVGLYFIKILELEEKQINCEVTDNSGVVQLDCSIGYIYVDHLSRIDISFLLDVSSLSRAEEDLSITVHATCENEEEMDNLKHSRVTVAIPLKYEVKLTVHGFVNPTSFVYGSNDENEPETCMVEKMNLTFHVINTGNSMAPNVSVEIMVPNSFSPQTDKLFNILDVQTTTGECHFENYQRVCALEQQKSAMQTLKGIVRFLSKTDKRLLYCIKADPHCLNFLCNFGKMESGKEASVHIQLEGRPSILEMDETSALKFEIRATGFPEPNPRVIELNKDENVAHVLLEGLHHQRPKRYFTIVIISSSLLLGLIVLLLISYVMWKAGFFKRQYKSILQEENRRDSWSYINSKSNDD
T1 sequence (P05556 21-798): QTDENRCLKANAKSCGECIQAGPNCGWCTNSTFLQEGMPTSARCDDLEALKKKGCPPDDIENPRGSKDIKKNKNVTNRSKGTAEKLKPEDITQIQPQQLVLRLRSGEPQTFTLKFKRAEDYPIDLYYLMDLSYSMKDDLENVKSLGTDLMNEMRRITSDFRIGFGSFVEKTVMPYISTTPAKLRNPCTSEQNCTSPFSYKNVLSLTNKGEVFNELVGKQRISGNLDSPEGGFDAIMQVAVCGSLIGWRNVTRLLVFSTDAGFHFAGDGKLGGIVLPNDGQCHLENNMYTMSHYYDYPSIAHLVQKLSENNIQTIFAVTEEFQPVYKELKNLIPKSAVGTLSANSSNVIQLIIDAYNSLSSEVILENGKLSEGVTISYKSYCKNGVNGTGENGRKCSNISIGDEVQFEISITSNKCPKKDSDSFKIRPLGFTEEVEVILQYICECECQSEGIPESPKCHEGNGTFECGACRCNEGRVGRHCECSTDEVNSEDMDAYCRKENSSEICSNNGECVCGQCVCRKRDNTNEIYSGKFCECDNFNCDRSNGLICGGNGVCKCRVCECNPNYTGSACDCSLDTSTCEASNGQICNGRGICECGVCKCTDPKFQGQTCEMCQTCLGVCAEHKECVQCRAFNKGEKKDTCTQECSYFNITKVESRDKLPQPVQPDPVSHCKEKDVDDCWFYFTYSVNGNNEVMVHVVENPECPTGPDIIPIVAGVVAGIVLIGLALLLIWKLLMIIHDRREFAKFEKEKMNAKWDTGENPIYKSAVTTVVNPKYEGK

The term IC50 denotes the midpoint of a concentration-inhibition curve. With `COc1ccccc1C(=O)N1CCCC(C(=O)N[C@@H](Cc2ccc(-c3cc(Cl)ccc3Cl)cc2)C(=O)O)C1` (stereo partly drawn) [Example 1.1, (2S)-3-(2′,5′-dichloro[1,1′-biphenyl]-4-yl)-2-({[1-(2-methoxybenzoyl)-3-piperidinyl]carbonyl}amino)propanoic acid], the IC50 (read-out: IC50) was at most 0.5 µM. With `Cc1ccc(-c2ccc(C[C@H](NC(=O)C3CCCN(C(=O)c4ccccc4Cl)C3)C(=O)O)cc2)cc1` (stereo partly drawn) [Example 1.2, (2S)-2-({[1-(2-chlorobenzoyl)-3-piperidinyl]carbonyl}amino)-3-(4′-methyl[1,1′-biphenyl]-4-yl)propanoic acid], the concentration for half-maximal inhibition (IC50) entry is “C-D”. With `Cc1ccccc1-c1ccc(C[C@H](NC(=O)C2CCCN(S(=O)(=O)c3c(Cl)cccc3Cl)C2)C(=O)O)cc1` (stereo partly drawn) [Example 1.3, (2S)-2-[({1-[(2,6-dichlorophenyl)sulfonyl]-3-piperidinyl}carbonyl)amino]-3-(2′-methyl[1,1′-biphenyl]-4-yl)propanoic acid], under “read-out: IC50”, the half-maximal inhibitory concentration (IC50) was 0.5 to 2 µM. For `O=C(N[C@@H](Cc1ccc(-c2ccc(Cl)cc2Cl)cc1)C(=O)O)C1CCCN(C(=O)c2ccccc2Cl)C1` (stereo partly drawn) [Example 1.4, (2S)-2-({[1-(2-chlorobenzoyl)-3-piperidinyl]carbonyl}amino)-3-(2′,4′-dichloro[1,1′-biphenyl]-4-yl)propanoic acid], the IC50 (read-out: IC50) lay within 0.5 to 2 µM.

For the compound `O=C(N[C@@H](Cc1ccc(-c2cc(Cl)ccc2Cl)cc1)C(=O)O)C1CCCN(C(=O)OC2CCCC2)C1` (stereo partly drawn) [Example 1.5, (2S)-2-[({1-[(cyclopentyloxy)carbonyl]-3-piperidinyl}carbonyl)amino]-3-(2′,5′-dichloro[1,1′-biphenyl]-4-yl)propanoic acid], the IC50 (read-out: IC50) is at most 0.5 µM. The same measure, in the same setting: in the case of `O=C(N[C@@H](Cc1ccc(-c2cc(Cl)ccc2Cl)cc1)C(=O)O)C1CCCN(S(=O)(=O)Cc2ccccc2)C1` (some centres unmarked) [Example 1.6] it was at most 0.5 µM. Turning to `O=C(N[C@@H](Cc1ccc(-c2ccccc2)cc1)C(=O)O)C1CCCN(C(=O)Cc2ccccc2)C1` (some centres unmarked) [Example 1.7], the half-maximal inhibitory concentration (IC50) result was “C-D”.

On to `O=C(N[C@@H](Cc1ccc(-c2ccccc2)cc1)C(=O)O)C1CCCN(C(=O)c2cccc(Cl)c2)C1` (some centres unmarked) [Example 1.8], for which the IC50 result is listed as “C-D”. Same read-out and setting: under `Cc1ccc(C(=O)N2CCCC(C(=O)N[C@@H](Cc3ccc(-c4ccccc4)cc3)C(=O)O)C2)cc1` (some centres unmarked) [Example 1.9] stands “C-D”; under `O=C(N[C@@H](Cc1ccc(-c2ccccc2)cc1)C(=O)O)C1CCCN(C(=O)c2ccc3c(c2)OCO3)C1` (some centres unmarked) [Example 1.10], “C-D”. Regarding `O=C(N[C@@H](Cc1ccc(-c2ccccc2)cc1)C(=O)O)C1CCCN(C(=O)C2CCCCC2)C1` (some centres unmarked) [Example 1.11], the half-maximal inhibitory concentration (IC50) result is given as “C-D”. Regarding `Cc1cc(Cl)c(CC(=O)N2CCCC(C(=O)N[C@@H](Cc3ccc(-c4ccccc4)cc3)C(=O)O)C2)c(Cl)c1` (some centres unmarked) [Example 1.12], the half-inhibitory concentration (IC50) entry is “C-D”. Still for that read-out and setting: in the case of `O=C(N[C@@H](Cc1ccc(-c2ccccc2)cc1)C(=O)O)C1CCCN(C(=O)c2ccccc2Cl)C1` (some centres unmarked) [Example 1.13] it was “C-D”; in that of `COc1ccccc1C(=O)N1CCCC(C(=O)N[C@@H](Cc2ccc(-c3ccccc3)cc2)C(=O)O)C1` (some centres unmarked) [Example 1.14], “C-D”. Same read-out and setting: in the case of `Cc1cc(C)c(OC(=O)N2CCCC(C(=O)N[C@@H](Cc3ccc(-c4ccccc4)cc3)C(=O)O)C2)c(C)c1` (some centres unmarked) [Example 1.15] it was “C-D”. For the compound `O=C(N[C@@H](Cc1ccc(-c2ccccc2)cc1)C(=O)O)C1CCCN(C(=O)OC2CCCC2)C1` (some centres unmarked) [Example 1.16], the IC50 (read-out: IC50) is 2 to 10 µM. With `Cc1ccc(-c2ccc(C[C@H](NC(=O)C3CCCN(C(=O)Cc4ccccc4)C3)C(=O)O)cc2)cc1` (some centres unmarked) [Example 1.17], the IC50 entry is reported as “C-D”. The same measure, in the same setting: in the case of `Cc1ccc(-c2ccc(C[C@H](NC(=O)C3CCCN(C(=O)c4cccc(Cl)c4)C3)C(=O)O)cc2)cc1` (some centres unmarked) [Example 1.18] it was “C-D”; in that of `Cc1ccc(C(=O)N2CCCC(C(=O)N[C@@H](Cc3ccc(-c4ccc(C)cc4)cc3)C(=O)O)C2)cc1` (some centres unmarked) [Example 1.19], “C-D”.

For the compound `Cc1ccc(-c2ccc(C[C@H](NC(=O)C3CCCN(C(=O)c4ccc5c(c4)OCO5)C3)C(=O)O)cc2)cc1` (some centres unmarked) [Example 1.20], the IC50 result is reported as “C-D”.

As for `Cc1ccc(-c2ccc(C[C@H](NC(=O)C3CCCN(C(=O)C4CCCCC4)C3)C(=O)O)cc2)cc1` (some centres unmarked) [Example 1.21], the IC50 entry is given as “C-D”. Still for that read-out and setting: under `Cc1ccc(-c2ccc(C[C@H](NC(=O)C3CCCN(C(=O)Cc4c(Cl)cc(Cl)cc4Cl)C3)C(=O)O)cc2)cc1` (some centres unmarked) [Example 1.22] stands “C-D”. Same read-out and setting: in the case of `Cc1ccc(-c2ccc(C[C@H](NC(=O)C3CCCN(C(=O)Oc4c(C)cc(C)cc4C)C3)C(=O)O)cc2)cc1` (some centres unmarked) [Example 1.23] it was “C-D”; in that of `COc1ccc(-c2ccc(C[C@H](NC(=O)C3CCCN(C(=O)C4CCCCC4)C3)C(=O)O)cc2)cc1` (some centres unmarked) [Example 1.24], “C-D”. On the same count and under the same terms, in the case of `COc1ccc(-c2ccc(C[C@H](NC(=O)C3CCCN(C(=O)Cc4c(Cl)cc(C)cc4Cl)C3)C(=O)O)cc2)cc1` (some centres unmarked) [Example 1.25] it was “C-D”.

For the compound `COc1ccc(-c2ccc(C[C@H](NC(=O)C3CCCN(C(=O)c4ccccc4Cl)C3)C(=O)O)cc2)cc1` (some centres unmarked) [Example 1.26], for the setting “read-out: IC50”, the IC50 is 0.5 to 2 µM. Consider `COc1ccc(-c2ccc(C[C@H](NC(=O)C3CCCN(C(=O)c4ccccc4OC)C3)C(=O)O)cc2)cc1` (some centres unmarked) [Example 1.27], for which the IC50 result was “C-D”.

As to `COc1ccc(-c2ccc(C[C@H](NC(=O)C3CCCN(C(=O)Oc4c(C)cc(C)cc4C)C3)C(=O)O)cc2)cc1` (some centres unmarked) [Example 1.28], the IC50 entry was “C-D”. Still for that read-out and setting: in the case of `COc1ccc(-c2ccc(C[C@H](NC(=O)C3CCCN(C(=O)OC4CCCC4)C3)C(=O)O)cc2)cc1` (some centres unmarked) [Example 1.29] it was “C-D”; in that of `Cc1ccccc1-c1ccc(C[C@H](NC(=O)C2CCCN(C(=O)Cc3ccccc3)C2)C(=O)O)cc1` (some centres unmarked) [Example 1.30], “C-D”. Take `Cc1ccccc1-c1ccc(C[C@H](NC(=O)C2CCCN(C(=O)c3cccc(Cl)c3)C2)C(=O)O)cc1` (some centres unmarked) [Example 1.31]: the half-inhibitory concentration (IC50) (read-out: IC50) was in the range of 2 to 10 µM. Same read-out and setting: under `Cc1ccc(C(=O)N2CCCC(C(=O)N[C@@H](Cc3ccc(-c4ccccc4C)cc3)C(=O)O)C2)cc1` (some centres unmarked) [Example 1.32] stands 2 to 10 µM. `Cc1ccccc1-c1ccc(C[C@H](NC(=O)C2CCCN(C(=O)c3ccc4c(c3)OCO4)C2)C(=O)O)cc1` (some centres unmarked) [Example 1.33]: the IC50 result was “C-D”.

For the compound `Cc1ccccc1-c1ccc(C[C@H](NC(=O)C2CCCN(C(=O)C3CCCCC3)C2)C(=O)O)cc1` (some centres unmarked) [Example 1.34], the IC50 entry is “C-D”. Same read-out and setting: in the case of `Cc1cc(Cl)c(CC(=O)N2CCCC(C(=O)N[C@@H](Cc3ccc(-c4ccccc4C)cc3)C(=O)O)C2)c(Cl)c1` (some centres unmarked) [Example 1.35] it was “C-D”; in that of `Cc1ccccc1-c1ccc(C[C@H](NC(=O)C2CCCN(C(=O)c3ccccc3Cl)C2)C(=O)O)cc1` (some centres unmarked) [Example 1.36], “C-D”. As to `COc1ccccc1C(=O)N1CCCC(C(=O)N[C@@H](Cc2ccc(-c3ccccc3C)cc2)C(=O)O)C1` (some centres unmarked) [Example 1.37], under “read-out: IC50”, the IC50 was 0.5 to 2 µM. Regarding `Cc1cc(C)c(OC(=O)N2CCCC(C(=O)N[C@@H](Cc3ccc(-c4ccccc4C)cc3)C(=O)O)C2)c(C)c1` (some centres unmarked) [Example 1.38], the IC50 entry is “C-D”.
